Source: patent publication US20220031684A1, “PROPHYLACTIC EFFICACY OF SEROTONIN 4 RECEPTOR AGONISTS AGAINST STRESS” (THE TRUSTEES OF COLUMBIA UNIVERSITY IN THE CITY OF NEW YORK, priority 2019, published 2022)

Assays:
129S6/SvEv mice = assay: Forced swim test (FST) after CFC; format: in vivo
Experimental: (§1) This chronic CORT elevation dysregulates the hypothalamic-pituitary-adrenal axis (HPA) in a manner similar to that observed in clinical depression. The dose and duration of CORT treatment was selected based on previous studies. CORT (35 μg/ml, equivalent to about 5 mg/kg/day) dissolved in 0.45% hydroxypropyl-o-cyclodextrin (0-CD) or vehicle (VEH) (0.45% j-CD) was available ad libitum in the drinking water in opaque bottles to protect it from light. VEH- and CORT-treated water was changed every 3 days to prevent possible degradation. Contextual Fear Conditioning (CFC): A 3-shock CFC procedure was administered as previously published. Briefly, mice were placed into context A and administered 3 2-s shocks (0.75 mA) at 180 s, 240 s or 300 s following placement into context A. Mice were removed from the context 15 s following the termination of shock (at 317 s). For context retrieval, mice were placed back into context A for 300 s. Electrophysiology: Electrophysiology was conducted as previously described. Statistical Analysis: Results from data analyses are expressed as means±SEM. Alpha was set to 0.05 for all analyses. Data were analyzed using GraphPad Prism v7.0 or v8.0. For all experiments, unless otherwise noted, one- or two-way ANOVAs with repeated-measures were applied to the data as appropriate. Significant main effects and/or interactions were followed by Fisher's PLSD post hoc analysis or unpaired t-tests. Drugs: All drugs were prepared in physiological saline and all injections were administered intraperitoneally (i.p.) in volumes of 0.1 cc per […] body weight unless otherwise noted. Fluoxetine hydrochloride (Flx): Flx (BioTrend Chemicals AG, BG197, Zurich, Germany) was administered in the drinking water (18 mg/kg/day) for 3 weeks before the start of CORT. […] (R,S)-ketamine (K): (R,S)-ketamine (Ketaset III, Ketamine HCl injection, Fort Dodge Animal Health, Fort Dodge, Iowa) was administered in a single dose at 30 mg/kg of body weight 1 week before the start of CFC. […] PF-04995274: PF-04995274 (Sigma, Catalog No. 1331782-27-4, St. Louis, Mo.) was administered a single dose at 3 or 10 mg/kg of body weight 1 week before the start of CFC. PF-04995274 was dissolved in saline using an ultrasonic homogenizer (BioLogics, Model 3000, Manassas, Va.). Osmotic minipump implantation: ALZET osmotic minipumps (Model 2004, […], 28 days) were implanted subcutaneously under isoflurane anesthesia as previously described [S2]. Osmotic minipumps were rotated under the skin two to three times per week. Behavioral Assays: All experiments were approved by the Institutional Animal Care and Use Committee (IACUC) at the New York Psychiatric Institute (NYSPI). Elevated Plus Maze (EPM): Testing was performed as previously described [S3]. Briefly, the maze is a plus-cross-shaped apparatus consisting of four arms, two open and two enclosed by walls, linked by a central platform at a height of 50 cm from the floor. Mice were individually placed in the center of the maze facing an open arm and were allowed to explore the maze for 5 min. The time spent in and the number of entries into the open arms was used as an anxiety index. Videos were scored using ANY-maze behavior tracking software (Stoelting, Wood Dale, Ill.). Novelty-Suppressed Feeding: The NSF is a conflict test that elicits competing motivations: the drive to eat and the fear of venturing into the center of a brightly lit arena. The latency to feed is used as an index of anxiety-like behavior, because classical anxiolytic drugs decrease this measure. The NSF test was carried out during an 8 min period as previously described [S3]. Briefly, the testing apparatus consisted of a plastic box (50×50×20 cm), the floor of which was covered with approximately 2 cm of bedding. For 129S6/SvEv experiments, mice were food restricted for 12 h. For the C57BL/6N experiments, mice were food restricted for 24 h. […]

C57BL/6NTac mice = assay: Elevated plus maze (EPM) in CORT model; format: in vivo; details: male C57BL/6NTac; Flx 18 mg/kg/day or RS-67,333 1.5 mg/kg/day for 3 weeks prior to CORT
Experimental: as §1, with “Elevated Plus Maze (EPM): Testing was performed as previously described [S3]. Briefly, the maze is a plus-cross-shaped apparatus consisting of four arms, two open and two enclosed by walls, linked by a central platform at a height of 50 cm from the floor. Mice were individually placed in the center of the maze facing an open arm and were allowed to explore the maze for 5 min. The time spent in and the number of entries into the open arms was used as an anxiety index.” left out, “Ill.).” for “Ill.). Novelty-Suppressed Feeding: The NSF is a conflict test that elicits competing motivations: the drive to eat and the fear of venturing into the center of a brightly lit arena. The latency to feed is used as an index of anxiety-like behavior, because classical anxiolytic drugs decrease this measure. The NSF test was carried out during an 8 min period as previously described [S3]. Briefly, the testing apparatus consisted of a plastic box (50×50×20 cm), the floor of which was covered with approximately 2 cm of bedding. For 129S6/SvEv experiments, mice were food restricted for 12 h. For the C57BL/6N experiments, mice were food restricted for 24 h.”

[1] = FIG. 3 cohort, FIG. 3G, Fisher's PLSD

## CCCCN1CCC(CCC(=O)c2cc(Cl)c(N)cc2OC)CC1.Cl [RS-67,333, 1-(4-amino-5-chloro-2-methoxyphenyl)-3-[1(n-butyl)-4-piperidinyl]-1-propanone HCl]
129S6/SvEv mice; FIG. 2E, Fisher's LSD
  p, FST Day 1 Immobility Time (sec), RS67333 (1.5 mg/kg) vs. RS67333 (10 mg/kg): 0.3430
  p, FST Day 1 Immobility Time (sec), RS67333 (1.5 mg/kg) vs. RS67333 (30 mg/kg): 0.5994
  p, FST Day 1 Immobility Time (sec), RS67333 (10 mg/kg) vs. RS67333 (30 mg/kg): 0.1099
  p, FST Day 1 Immobility Time (sec), Saline vs. RS67333 (1.5 mg/kg): 0.3784
  p, FST Day 1 Immobility Time (sec), Saline vs. RS67333 (10 mg/kg): 0.0028
  p, FST Day 1 Immobility Time (sec), Saline vs. RS67333 (30 mg/kg): 0.8437
129S6/SvEv mice; [1]
  p, FST Day 2 Immobility Time (min 3-6) (sec), RS67333 (1.5 mg/kg) vs. RS67333 (10 mg/kg): 0.0235
  p, FST Day 2 Immobility Time (min 3-6) (sec), Saline vs. RS67333 (1.5 mg/kg): 0.4916
  p, FST Day 2 Immobility Time (min 3-6) (sec), Saline vs. RS67333 (10 mg/kg): 0.1991
129S6/SvEv mice; female 129S6/SvEv, 1.5 or 10 mg/kg vs saline
  immobility, FST days 1 and 2: comparable levels of immobility
129S6/SvEv mice; male 129S6/SvEv, RS-67,333 1.5, 10 or 30 mg/kg vs saline
  immobility time, FST Day 2: comparable
129S6/SvEv mice; male 129S6/SvEv, single injection 1 week before CFC, 10 mg/kg
  immobility, FST Day 1 vs saline: significantly less immobile
C57BL/6NTac mice
  entries into the open arms of the EPM vs CORT+Veh: significantly more entries
  time spent in the open arms of the EPM vs VEH+Veh: did not alter
